Common to all, as to type: physicochemical
The nature of data set [1]: Solubility of the degradable cross-linked product (cured film) in water / organic solvent. As to the method:
The solution was applied onto a glass substrate to give a cured film thickness of 0.1 μm, and then dried and cured at 150° C. for 10 minutes to obtain a degradable cross-linked product.

The nature of data set [2]: Degradation of the compound on adding sodium hypochlorite aqueous solution. The note with it: 3% sodium hypochlorite aqueous solution added to the compound.
A short description of data set [3]: Degradation of the degradable cross-linked product on immersion in oxidizing agent solution. As for the experimental part:
The method for degrading a degradable cross-linked product according to the present invention includes bringing the degradable cross-linked product into contact with an aqueous solution containing an oxidizing agent at 100° C. or lower.
The conditions for bringing the degradable cross-linked product into contact with the aqueous solution containing the oxidizing agent include a temperature of 100° C. or lower, preferably of 15° C. to 50° C. The conditions preferably include a duration of 60 minutes or shorter, more preferably 10 minutes or shorter. If necessary, the cross-linked product may be shaken or stirred during the reaction with the oxidizing agent. Non-limiting specific examples of the method for bringing the degradable cross-linked product into contact with the aqueous solution containing the oxidizing agent include immersing the degradable cross-linked product in the aqueous solution containing the oxidizing agent, or spraying or adding dropwise the aqueous solution containing the oxidizing agent onto the degradable cross-linked product.
An amount of 0.3 g of the compound of formula (A), 0.1 g of poly(methylhydrosiloxane), and 4.0 mg of a platinum catalyst (trade name: CAT-PL-50T, available from Shin-Etsu Chemical Co., Ltd.) were added to 40 g of dimethyl sulfoxide to obtain a thermosetting composition solution. The solution was applied onto a glass substrate to give a cured film thickness of 0.1 μm, and then dried and cured at 150° C. for 10 minutes to obtain a degradable cross-linked product.

The nature of data set [4]: Solvent solubility evaluation of the degradable cross-linking agents. The note with it: for Solvent solubility, Isopropanol / Solvent solubility, Methanol / Solvent solubility, Methylisobutyl ketone / Solvent solubility, N-methylpyrrolidone / Solvent solubility, Propylene glycol monomethyl ether: 0.5 mL solvent added to 2 mg, visual, room temperature, then heat gun; for Solvent solubility, overall assessment in words: summary over the solvents of Tables 1 and 2. The source says: The degree of dissolution was visually observed. When an undissolved portion remained at room temperature, the mixture was sufficiently heated with a heat gun and then visually observed again. The scoring was as follows: 3 points for those that completely dissolved at room temperature; 2 points for those in which an undissolved portion remained at room temperature but completely dissolved after heating; 1 point for those in which a slight amount of an undissolved portion remained after heating; and 0 points for those in which a large amount of an undissolved portion remained after heating. Here, the degradable cross-linking agents in liquid form were evaluated for compatibility with the solvents.

[5] abbreviates: cured film immersed in 3% sodium hypochlorite aqueous solution.

Structures are written as SMILES.

The source of these data is US20260265184A1, “DEGRADABLE CROSSLINKING AGENT” (NAGASE CHEMTEX CORPORATION, priority 2023, published 2026).

Regarding `C=CCCC(=O)NNC(=O)CCCCCCCCC(=O)NNC(=O)OCC=C` [Formula (A), reference compound], the “Solubility of the degradable cross-linked product made with the compound” value (from here on “Solubility … with the compound”) in data set [1] (in water) is recorded as “insoluble”. Further, the “Degradation of the compound by oxidizing agent” value (“Degradation of the compound” for short) in data set [2] was “foaming and degradation of the compound were observed”. For the same compound, the “Degradation of the degradable cross-linked product made with the compound” value (from here on “Degradation … with the compound”) in data set [3] (setting [5]) is “foaming and removal of the product from the substrate were observed”. Moreover, in data set [4], the “Solvent solubility, Isopropanol” value was 0; the “Solvent solubility, Methanol” value stood at 0; the “Solvent solubility, Methylisobutyl ketone” value is 0; the “Solvent solubility, N-methylpyrrolidone” value was 0. Besides, in data set [4], the “Solvent solubility, Propylene glycol monomethyl ether” value stood at 0 and the “Solvent solubility, overall assessment in words” value (from here on “Solvent solubility … in words”) is recorded as “poorly soluble in all the solvents”.
`C=CCNC(=O)NNC(=O)CCCCCCCCC(=O)NNC(=O)NCC=C` [Formula (B)]: in data set [1] (in water), the “Solubility … with the compound” value is “insoluble”. Moreover, the “Degradation of the compound” value in data set [2] was “foaming and degradation of the compound were observed”. Besides, the “Degradation … with the compound” value in data set [3] (setting [5]) was “foaming and removal of the product from the substrate were observed”. In addition, in data set [4], the “Solvent solubility, Isopropanol” value is 1; the “Solvent solubility, Methanol” value stood at 2; the “Solvent solubility, Methylisobutyl ketone” value is given as 0; the “Solvent solubility, N-methylpyrrolidone” value is 3. Also, the “Solvent solubility, Propylene glycol monomethyl ether” value in data set [4] worked out at 0.
Regarding `C=CCOC(=O)NNC(=O)NCCCCCCNC(=O)NNC(=O)OCC=C` [Formula (C)], the “Solubility … with the compound” value in data set [1] (in water) is “insoluble”. The “Degradation of the compound” value in data set [2] is “foaming and degradation of the compound were observed”. Besides, the “Degradation … with the compound” value in data set [3] (setting [5]) is “foaming and removal of the product from the substrate were observed”. Further, in data set [4], the “Solvent solubility, Isopropanol” value is reported as 1; the “Solvent solubility, Methanol” value was determined as 2; the “Solvent solubility, Methylisobutyl ketone” value is 0; the “Solvent solubility, N-methylpyrrolidone” value is given as 3. Also, the “Solvent solubility, Propylene glycol monomethyl ether” value in data set [4] was 2.
Consider `C=CCOC(=O)NNC(=O)CCCCCCCCC(=O)NNC(=O)OCC=C` [Formula (D)], for which the “Solubility … with the compound” value in data set [1] (in water) was “insoluble”. In data set [2], the “Degradation of the compound” value is “foaming and degradation of the compound were observed”. Besides, the “Degradation … with the compound” value in data set [3] (setting [5]) was “foaming and removal of the product from the substrate were observed”. Moreover, in data set [4], the “Solvent solubility, Isopropanol” value was 3; the “Solvent solubility, Methanol” value is 3; the “Solvent solubility, Methylisobutyl ketone” value amounted to 2; the “Solvent solubility, N-methylpyrrolidone” value is listed as 3. Also, the “Solvent solubility, Propylene glycol monomethyl ether” value in data set [4] is listed as 3.
For the compound `C=CCOC(=O)NNC(=O)CCCO` [Formula (G)], the “Solubility … with the compound” value in data set [1] (in water) was “insoluble”. Besides, the “Degradation of the compound” value in data set [2] is “foaming and degradation of the compound were observed”. The “Degradation … with the compound” value in data set [3] (setting [5]) is “foaming and removal of the product from the substrate were observed”. Also, in data set [4], the “Solvent solubility, Isopropanol” value was 3; the “Solvent solubility, Methanol” value came out at 3; the “Solvent solubility, Methylisobutyl ketone” value is reported as 2; the “Solvent solubility, N-methylpyrrolidone” value worked out at 3. Further, the “Solvent solubility, Propylene glycol monomethyl ether” value in data set [4] turned out to be 3.
Take `C=C(C)C(=O)OCCNC(=O)NNC(=O)c1cc(O)cc(O)c1` [Formula (I)]: in data set [1] (in isopropanol and water), the “Solubility … with the compound” value is given as “insoluble”. Further, the “Degradation of the compound” value in data set [2] is “foaming and degradation of the compound were observed”. The “Degradation … with the compound” value in data set [3] (cured film immersed in 2-fold dilution of a 3% sodium hypochlorite aqueous solution with isopropanol) was “foaming and removal of the product from the substrate were observed”. In addition, in data set [4], the “Solvent solubility, Isopropanol” value turned out to be 0; the “Solvent solubility, Methanol” value worked out at 3; the “Solvent solubility, Methylisobutyl ketone” value was 0; the “Solvent solubility, N-methylpyrrolidone” value worked out at 3. Further, in data set [4], the “Solvent solubility, Propylene glycol monomethyl ether” value is given as 0. Moreover, the “Solvent solubility … in words” value in data set [4] (listed as Example 8) is “slightly less soluble than the compound of Example 3 but exhibited an acceptable level of solubility”.
As for `O=C(CCS)NNC(=O)NCCCCCCNC(=O)N(CCCCCCNC(=O)NNC(=O)CCS)C(=O)NCCCCCCNC(=O)NNC(=O)CCS` [Formula (J)], the “Solubility … with the compound” value in data set [1] (in water) is given as “insoluble”. Also, in data set [2], the “Degradation of the compound” value is “foaming and degradation of the compound were observed”. For the same compound, the “Degradation … with the compound” value in data set [3] (setting [5]) is “foaming and removal of the product from the substrate were observed”. In addition, in data set [4], the “Solvent solubility, Isopropanol” value is 1; the “Solvent solubility, Methanol” value stood at 1; the “Solvent solubility, Methylisobutyl ketone” value worked out at 0; the “Solvent solubility, N-methylpyrrolidone” value was 1. The “Solvent solubility, Propylene glycol monomethyl ether” value in data set [4] turned out to be 0. The “Solvent solubility … in words” value in data set [4] (listed as Example 9) is given as “slightly less soluble than the compound of Example 3 but exhibited an acceptable level of solubility”.
As to `C=CCOC(=O)NNC(=O)CCC(NC(=O)NNC(=O)CCCC(=O)NNC(=O)NC(CCC(=O)NNC(=O)OCC=C)C(=O)NNC(=O)OCC=C)C(=O)NNC(=O)OCC=C` (stereo not drawn) [Formula (L)], the “Solubility … with the compound” value in data set [1] (in water) is recorded as “insoluble”. The “Degradation of the compound” value in data set [2] is “foaming and degradation of the compound were observed”. Moreover, the “Degradation … with the compound” value in data set [3] (setting [5]) is “foaming and removal of the product from the substrate were observed”. Moreover, in data set [4], the “Solvent solubility, Isopropanol” value is 1; the “Solvent solubility, Methanol” value was 2; the “Solvent solubility, Methylisobutyl ketone” value stood at 1; the “Solvent solubility, N-methylpyrrolidone” value is 3. For the same compound, the “Solvent solubility, Propylene glycol monomethyl ether” value in data set [4] is listed as 3.
Regarding `O=C(CCCCCOC(=O)NNC(=O)OCCO)NNC(=O)c1cccc(C(=O)NNC(=O)CCCCCOC(=O)NNC(=O)OCCO)c1` [Formula (M)], the “Solubility … with the compound” value in data set [1] (in THF and water) was “insoluble”. The “Degradation of the compound” value in data set [2] was “foaming and degradation of the compound were observed”. For the same compound, the “Degradation … with the compound” value in data set [3] (cured film immersed in 3-fold dilution of a 3% sodium hypochlorite aqueous solution with THE) was “foaming and removal of the product from the substrate were observed”. In data set [4], the “Solvent solubility, Isopropanol” value turned out to be 0; the “Solvent solubility, Methanol” value is recorded as 3; the “Solvent solubility, Methylisobutyl ketone” value worked out at 0; the “Solvent solubility, N-methylpyrrolidone” value was 3. Further, the “Solvent solubility, Propylene glycol monomethyl ether” value in data set [4] was 3.
